Laboratory results from patent US11274084B2, “3-aryl-4-amido-bicyclic [4,5,0] hydroxamic acids as HDAC inhibitors” (Valo Health, Inc., priority 2015, dated 2022).

Biological target: T1, HDAC6 (Homo sapiens, UniProt Q9UBN7)
T1 construct: Full length human recombinant HDAC6 protein; made in house
T1 sequence (Q9UBN7 1-1215): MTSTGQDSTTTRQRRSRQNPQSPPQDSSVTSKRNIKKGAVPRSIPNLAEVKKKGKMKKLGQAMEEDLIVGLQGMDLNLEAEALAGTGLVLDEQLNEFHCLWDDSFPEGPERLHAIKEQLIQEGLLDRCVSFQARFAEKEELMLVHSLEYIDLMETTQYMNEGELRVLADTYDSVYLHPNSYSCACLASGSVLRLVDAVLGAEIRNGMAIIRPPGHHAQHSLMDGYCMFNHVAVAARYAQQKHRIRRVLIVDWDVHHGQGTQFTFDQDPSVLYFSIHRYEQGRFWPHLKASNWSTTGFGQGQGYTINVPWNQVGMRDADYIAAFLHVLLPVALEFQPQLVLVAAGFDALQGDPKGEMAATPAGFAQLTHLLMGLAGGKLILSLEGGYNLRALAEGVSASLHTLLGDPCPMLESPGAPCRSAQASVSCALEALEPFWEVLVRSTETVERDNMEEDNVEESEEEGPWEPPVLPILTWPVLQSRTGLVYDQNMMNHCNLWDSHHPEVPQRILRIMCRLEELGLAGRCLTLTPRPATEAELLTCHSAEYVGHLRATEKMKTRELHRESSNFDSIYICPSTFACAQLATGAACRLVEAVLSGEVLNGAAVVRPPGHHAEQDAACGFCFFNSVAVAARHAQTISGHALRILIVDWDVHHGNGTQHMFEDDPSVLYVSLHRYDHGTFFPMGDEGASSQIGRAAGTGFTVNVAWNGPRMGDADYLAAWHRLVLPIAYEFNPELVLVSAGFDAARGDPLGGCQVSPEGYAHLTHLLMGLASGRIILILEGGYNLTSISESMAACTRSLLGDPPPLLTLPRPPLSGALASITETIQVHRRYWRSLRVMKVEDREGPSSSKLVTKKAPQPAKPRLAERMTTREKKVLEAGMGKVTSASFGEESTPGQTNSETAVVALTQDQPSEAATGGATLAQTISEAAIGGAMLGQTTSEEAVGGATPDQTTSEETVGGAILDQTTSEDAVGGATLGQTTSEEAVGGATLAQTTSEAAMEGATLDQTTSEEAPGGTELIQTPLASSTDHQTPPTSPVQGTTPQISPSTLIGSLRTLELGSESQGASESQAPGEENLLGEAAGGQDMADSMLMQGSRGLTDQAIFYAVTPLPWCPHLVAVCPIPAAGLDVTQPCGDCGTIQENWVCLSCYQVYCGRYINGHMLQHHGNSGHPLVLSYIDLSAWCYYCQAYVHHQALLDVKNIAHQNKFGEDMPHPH
Test: In vitro histone deacetylase assay: enzymatic HDAC6 assay by electrophoretic mobility shift
Type: biochemical
Conditions: full length human recombinant HDAC6 1 nM, 2 μM peptide substrate RHKK(Ac)-NH2, 25° C., 12 concentrations; read-out: Inhibitory Concentration (IC50) against HDAC6, Activity Range
Description: The enzymatic HDAC6 assay was performed using electrophoretic mobility shift assay. […] The enzymatic reactions were assembled in 384-well plates in a total volume of 25 μL of a reaction buffer comprising. 100 mM HEPES, pH 7.5, 25 mM KCl, 0.1% bovine serum albumin, 0.01% Triton X-100, 1% DMSO (from compounds), 2 μM of the fluorescently labeled peptide substrate, and enzyme. The enzyme was added at a final concentration of 1 nM. The peptide substrate RHKK(Ac)-NH2 was used. The compounds were tested at 12 concentrations spaced by 3× dilution intervals. Negative control samples (0%-inhibition in the absence of inhibitor) and positive control samples (100%-inhibition) were assembled in replicates of four in each assay plate. The reactions were incubated at 25° C. and quenched by the addition of 45 μL of termination buffer (100 mM HEPES, pH 7.5, 0.01% Triton X-100, 0.05% SDS).
The terminated assay plates were analyzed on LabChip® 3000 microfluidic electrophoresis instrument (Perkin Elmer/Caliper Life Sciences). The fluorescence intensity of the electrophoretically separated de-acetylated product and substrate peptide was measured. Activity in each sample was determined as the product to sum ratio (PSR):P/(S+P), where P is the peak height of the product peptide and S is the peak height of the substrate peptide. Percent inhibition (Pinh) is determined using the following equation:
Pinh=(PSR0%−PSRinh)/(PSR0%−PSR100%)*100, where PSRinh is the product sum ratio in the presence of inhibitor, PSR0% is the average product sum ration in the absence of inhibitor, and PSR100% is the average product sum ratio in 100%-inhibition control samples. The IC50 values of inhibitors were determined by fitting the %-inhibition curves with 4 parameter dose-response models using XLfit 4 software.

Compound	IC50 [nM]
O=C(NO)c1ccc2c(c1)OC[C@H](c1ccccc1)N(C(=O)c1ccccn1)C2 [(S)-N-hydroxy-3-phenyl-4-picolinoyl-2,3,4,5-tetrahydrobenzo[f][1,4]oxazepine-8-carboxamide]	≤ 100
O=C(NO)c1ccc2c(c1)OC[C@@H](c1cccc(C(F)(F)F)c1)N(C(=O)C1CCOCC1)C2 (single isomer, unassigned)	100 to 500
CC1(C(=O)N2Cc3ccc(C(=O)NO)cc3OC[C@@H]2c2ccccc2)CCOCC1 [(S)-N-hydroxy-4-(4-methyltetrahydro-2H-pyran-4-carbonyl)-3-phenyl-2,3,4,5-tetrahydrobenzo[f][1,4]oxazepine-8-carboxamide]	≤ 100
O=C(NO)c1ccc2c(c1)OC[C@H](c1ccc(F)cc1)N(C(=O)C1CCOCC1)C2 [(S)-3-(4-fluorophenyl)-N-hydroxy-4-(tetrahydro-2H-pyran-4-carbonyl)-2,3,4,5-tetrahydrobenzo[f][1,4]oxazepine-8-carboxamide]	≤ 100
O=C(NO)c1ccc2c(c1)OC[C@H](c1ccccc1)N(C(=O)[C@@H]1CCOC1)C2 (single isomer, unassigned)	≤ 100
Cc1ccc([C@H]2COc3cc(C(=O)NO)ccc3CN2C(=O)C2CCOCC2)cc1 [(S)-N-hydroxy-4-(tetrahydro-2H-pyran-4-carbonyl)-3-(p-tolyl)-2,3,4,5-tetrahydrobenzo[f][1,4]oxazepine-8-carboxamide]	≤ 100
O=C(NO)c1ccc2c(c1)OC[C@H](c1ccccc1)N(C(=O)C1CCC1)C2 [(S)-4-(cyclobutanecarbonyl)-N-hydroxy-3-phenyl-2,3,4,5-tetrahydrobenzo[f][1,4]oxazepine-8-carboxamide]	≤ 100
O=C(NO)c1ccc2c(c1)OC[C@H](c1ccccc1)N(C(=O)[C@H]1CCOC1)C2 (single isomer, unassigned)	≤ 100
Cc1ccccc1[C@H]1COc2cc(C(=O)NO)ccc2CN1C(=O)C1CCOCC1 [(S)-N-hydroxy-4-(tetrahydro-2H-pyran-4-carbonyl)-3-(o-tolyl)-2,3,4,5-tetrahydrobenzo[f][1,4]oxazepine-8-carboxamide]	≤ 100
O=C(NO)c1ccc2c(c1)OC[C@H](c1ccccc1)N(C(=O)c1ccc(F)cc1)C2 [(S)-4-(4-fluorobenzoyl)-N-hydroxy-3-phenyl-2,3,4,5-tetrahydrobenzo[f][1,4]oxazepine-8-carboxamide]	≤ 100
O=C(NO)c1ccc2c(c1)OC[C@H](c1ccccc1)N(C(=O)[C@@H]1CCCOC1)C2 (single isomer, unassigned)	≤ 100
CO[C@H]1CC[C@H](C(=O)N2Cc3ccc(C(=O)NO)cc3OC[C@@H]2c2ccccc2)CC1 [(S)-N-hydroxy-4-((1r,4S)-4-methoxycyclohexane-1-carbonyl)-3-phenyl-2,3,4,5-tetrahydrobenzo[f][1,4]oxazepine-8-carboxamide]	≤ 100
O=C(NO)c1ccc2c(c1)OC[C@H](c1cccc(F)c1)N(C(=O)C1CCOCC1)C2 [(S)-3-(3-fluorophenyl)-N-hydroxy-4-(tetrahydro-2H-pyran-4-carbonyl)-2,3,4,5-tetrahydrobenzo[f][1,4]oxazepine-8-carboxamide]	≤ 100
O=C(NO)c1ccc2c(c1)OC[C@H](c1ccc(Cl)cc1)N(C(=O)C1CCOCC1)C2 [(S)-3-(4-chlorophenyl)-N-hydroxy-4-(tetrahydro-2H-pyran-4-carbonyl)-2,3,4,5-tetrahydrobenzo[f][1,4]oxazepine-8-carboxamide]	≤ 100
CC(C)(C)C(=O)N1Cc2ccc(C(=O)NO)cc2OC[C@@H]1c1ccccc1 [(S)-N-hydroxy-3-phenyl-4-pivaloyl-2,3,4,5-tetrahydrobenzo[f][1,4]oxazepine-8-carboxamide]	≤ 100

Other lines, results leading:

IC50 [nM]	Compound
≤ 100	O=C(NO)c1ccc2c(c1)OC[C@H](c1ccccc1)N(C(=O)C1(F)CCOCC1)C2 [(S)-4-(4-fluorotetrahydro-2H-pyran-4-carbonyl)-N-hydroxy-3-phenyl-2,3,4,5-tetrahydrobenzo[f][1,4]oxazepine-8-carboxamide]
≤ 100	O=C(NO)c1ccc2c(c1)OC[C@H](c1ccc(C(F)(F)F)cc1)N(C(=O)C1CCOCC1)C2 [(S)-N-hydroxy-4-(tetrahydro-2H-pyran-4-carbonyl)-3-(4-(trifluoromethyl)phenyl)-2,3,4,5-tetrahydrobenzo[f][1,4]oxazepine-8-carboxamide]
≤ 100	CC(=O)N1Cc2ccc(C(=O)NO)cc2OC[C@@H]1c1ccccc1 [(S)-4-acetyl-N-hydroxy-3-phenyl-2,3,4,5-tetrahydrobenzo[f][1,4]oxazepine-8-carboxamide]
≤ 100	O=C(NO)c1ccc2c(c1)OC[C@H](c1ccccc1)N(C(=O)C1CCCCC1)C2 [(S)-4-(cyclohexanecarbonyl)-N-hydroxy-3-phenyl-2,3,4,5-tetrahydrobenzo[f][1,4]oxazepine-8-carboxamide]
100 to 500	O=C(NO)c1ccc2c(c1)OC[C@H](c1cccnc1)N(C(=O)C1CCOCC1)C2 (single isomer, unassigned)
≤ 100	COCC1(C(=O)N2Cc3ccc(C(=O)NO)cc3OC[C@@H]2c2ccccc2)CC1 [(S)—N-hydroxy-4-(1-(methoxymethyl)cyclopropane-1-carbonyl)-3-phenyl-2,3,4,5-tetrahydrobenzo[f][1,4]oxazepine-8-carboxamide]
≤ 100	O=C(NO)c1ccc2c(c1)OC[C@H](c1ccccc1)N(C(=O)C1CCCC1)C2 [(S)-4-(cyclopentanecarbonyl)-N-hydroxy-3-phenyl-2,3,4,5-tetrahydrobenzo[f][1,4]oxazepine-8-carboxamide]
≤ 100	O=C(NO)c1ccc2c(c1)OC[C@H](c1ccccc1)N(C(=O)C1CC3CCC(C1)O3)C2 (stereo partly drawn) [(3S)-4-(8-oxabicyclo[3.2.1]octane-3-carbonyl)-N-hydroxy-3-phenyl-2,3,4,5-tetrahydrobenzo[f][1,4]oxazepine-8-carboxamide]
≤ 100	O=C(NO)c1ccc2c(c1)OC[C@H](c1ccccc1)N(C(=O)[C@H]1CCCOC1)C2 (single isomer, unassigned)
≤ 100	O=C(NO)c1ccc2c(c1)OC[C@H](c1ccccc1)N(C(=O)C1CCCO1)C2 (stereo partly drawn) [(3S)-N-hydroxy-3-phenyl-4-(tetrahydrofuran-2-carbonyl)-2,3,4,5-tetrahydrobenzo[f][1,4]oxazepine-8-carboxamide]
≤ 100	CC(C)C(=O)N1Cc2ccc(C(=O)NO)cc2OC[C@@H]1c1ccccc1 [(S)-N-hydroxy-4-isobutyryl-3-phenyl-2,3,4,5-tetrahydrobenzo[f][1,4]oxazepine-8-carboxamide]
≤ 100	CN1CCC(C(=O)N2Cc3ccc(C(=O)NO)cc3OC[C@@H]2c2ccccc2)CC1 [(S)-N-hydroxy-4-(1-methylpiperidine-4-carbonyl)-3-phenyl-2,3,4,5-tetrahydrobenzo[f][1,4]oxazepine-8-carboxamide]
> 500	O=C(NO)c1ccc2c(c1)OC[C@@H](c1ccccc1)N(C(=O)C1CCOCC1)C2 [(R)-N-hydroxy-3-phenyl-4-(tetrahydro-2H-pyran-4-carbonyl)-2,3,4,5-tetrahydrobenzo[f][1,4]oxazepine-8-carboxamide]
